Data on 3 compounds can be found in patent US20030147936A1, “Prostatic hormonal implants treatment of prostate cancer” (priority 2002, published 2003).

Test [1] has as its system recurrent prostate cancer. In words: Serum acid phosphatase of the same patient on oral DES. The test is classed as in vivo, human.
For test [2], the system named is recurrent poor prognostic prostate cancer. As to the method: Since this hormonal treatment was rendered at recurrence after radiation therapy, it is termed as secondary hormonal treatment.
Later it was reduced to 1 mg per day.

Test [3] deals with hormone-refractory prostate cancer. The note with it: in vivo; cited from earlier work.
Test [4] has as its system prostate with cancer, prostatic volume greater than 50 cc. The conditions noted are these: before interstitial radioactive seed implant; cited from earlier work.
Another test has as its system rat breast tumor. Nature of the test: Implantation of iodoestradiol adsorbed sponges to rat breast tumor. In kind it is in vivo. The note with it: sponges implanted to rat breast tumor; unpublished data. The source says:
In U.S. Pat. No. 4,321,208 (31; Sahadevan V: Preparation of directly iodinated steroid hormones and related compounds, U.S. Pat. No. 4,321,208; 1982) this inventor has described the methods for preparation of iodinated steroid hormones including the estradiol as early as in 1976, the time of filing the patent application.

Another test concerns estrogen antiserum. The note with it: cited from earlier work.
A further test concerns the target estrogen receptor sites (Homo sapiens, UniProt P03372). The conditions noted are these: cited from earlier work.
Setting [5] is: DES 1 mg three times per day by mouth, four years of follow-ups.
The mark [6] stands for this setting: June 10, 1993, pretreatment value, before DES was started, table dose 3 mg 3× daily.
Where [7] appears, read: September 15, 1993, DES 3 mg 3× daily (table).

Read-outs that look alike come from different tables or passages of the source.

Sequence of estrogen receptor sites (P03372 whole entry): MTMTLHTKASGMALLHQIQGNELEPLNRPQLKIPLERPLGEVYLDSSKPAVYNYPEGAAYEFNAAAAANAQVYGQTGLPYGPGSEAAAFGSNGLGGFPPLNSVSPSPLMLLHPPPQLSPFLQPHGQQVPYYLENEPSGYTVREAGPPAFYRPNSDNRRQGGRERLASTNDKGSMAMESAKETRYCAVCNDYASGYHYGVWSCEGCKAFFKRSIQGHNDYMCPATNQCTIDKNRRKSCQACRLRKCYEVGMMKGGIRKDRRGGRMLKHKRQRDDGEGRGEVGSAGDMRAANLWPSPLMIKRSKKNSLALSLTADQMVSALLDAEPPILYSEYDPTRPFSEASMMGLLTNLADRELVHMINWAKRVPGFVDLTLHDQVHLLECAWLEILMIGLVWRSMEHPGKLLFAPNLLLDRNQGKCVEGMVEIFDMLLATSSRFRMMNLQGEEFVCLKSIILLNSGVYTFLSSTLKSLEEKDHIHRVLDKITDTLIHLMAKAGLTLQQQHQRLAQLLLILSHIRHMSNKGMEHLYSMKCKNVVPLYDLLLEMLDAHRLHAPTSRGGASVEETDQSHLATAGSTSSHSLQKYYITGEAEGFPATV

On to `CC/C(=C(/CC)c1ccc(O)cc1)c1ccc(O)cc1` [DES, diethylstilbestrol], for which the “acid phosphatase nadir value during treatment with DES” value in test [1] (setting [5]) is reported as 0.3 international unit. Further, the “Acid Phosphatase” value in test [1] (setting [6]) is given as 48.0 iu; in test [1] (setting [7]), 0.3 iu. Further, the “decrease of serum acid phosphatase (FIG. 3)” value in test [1] (from pretreatment 48 international units per ml, rapidly) is recorded as “normal level”. In test [1] (three months after DES 1 mg three times a day, pretreatment 48.0), the “serum acid phosphatase level” value is < 0.3 international units per ml. The “PSA reduced to” value is reported as “less than 1 ng per ml” in test [2] (1 mg DES three times a day, patients with serum PSA exceeding over 300 ng per ml) and 0.1 ng per ml in test [2] (DES oral dose of 1 mg daily, 363 ng per ml before treatment). The PSA was greater than 0.1 ng/mL in test [2] (August 4, 1996, DES 1 mg daily); greater than 0.1 ng/mL in test [2] (August 5, 1997, DES 1 mg daily); 363.0 ng/mL in test [2] (setting [6]); greater than 0.1 ng/mL in test [2] (June 13, 1994, DES 3 mg 3× daily (table)); greater than 0.1 ng/mL in test [2] (May 3, 1995, DES 3 mg 3× daily (table)); 38.4 ng/mL in test [2] (September 7, 1993, DES 3 mg 3× daily (table)). Moreover, the PSA in test [2] (setting [7]) was 4.5 ng/mL; in test [2] (September 26, 1994, DES 3 mg 3× daily (table)) it was greater than 0.1 ng/mL. For the same compound, the “serum PSA nadir value during treatment with DES” value in test [2] (setting [5]) was 0.1 ng per ml. For the same compound, the “PSA value, maintained at low nadir” value in test [2] (continued DES alone, 1 mg three times a day, later 1 mg per day, maintained for four years, pretreatment 363 ng per ml) is “less than 0.1 ng”. Further, in test [2] (from pretreatment 363 ng per ml, rapidly), the “decrease of serum PSA (FIG. 1)” value is “normal level”. Also, in test [3], the “effectiveness in hormone-refractory prostate cancer” value is given as “effective”.

As to LHRH, the “reduction of the initial prostatic volume” value in test [4] was “about 40 per cent”.

As for iodoestradiol, the tumor regression result in the test on rat breast tumor is “excellent tumor regression”. The “binding to estrogen antiserum” value with estrogen antiserum is “binds”. For the same compound, on estrogen receptor sites, the “binding to estrogen receptor sites” value is given as “binds”.
